Target: T1, Taste receptor type 2 member 39 (Homo sapiens) (UniProt P59534)
T1 sequence (whole entry): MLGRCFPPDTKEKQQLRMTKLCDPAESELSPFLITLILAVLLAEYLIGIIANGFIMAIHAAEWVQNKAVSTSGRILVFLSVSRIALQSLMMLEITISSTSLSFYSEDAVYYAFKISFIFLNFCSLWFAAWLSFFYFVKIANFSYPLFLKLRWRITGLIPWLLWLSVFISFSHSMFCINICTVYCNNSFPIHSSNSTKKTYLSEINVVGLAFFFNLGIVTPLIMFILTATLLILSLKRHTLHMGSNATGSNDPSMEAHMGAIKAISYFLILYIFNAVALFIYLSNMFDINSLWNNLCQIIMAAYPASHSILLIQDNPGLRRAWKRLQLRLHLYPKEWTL
Assay: Inhibition of human TAS2R39 expressed in HEK293 cells coexpressing G-protein at 10 mM assessed as reduction in epicatechin gallate-induced intracellular calcium release by Fluo-4-AM dye based fluorescence assay relative to control
Assay type: functional, cell-based

SMILES | inhibition
O=C(O)/C=C/c1ccc(O)c(O)c1 | 30%
COc1cccc(/C=C/C(=O)O)c1 | 0%
O=C(O)CCCc1ccccc1 | 40%
O=C(O)Cc1ccc(O)c(O)c1 | 15%
O=C(O)CCc1ccc(O)c(O)c1 | 30%
COc1cc(CCC(=O)O)cc(OC)c1OC | 35%
O=C(O)c1ccc(O)c(O)c1 | 15%
COc1ccc(CCC(=O)O)cc1 | 40%
O=C(O)c1cc(O)c(O)c(O)c1 | 25%
COc1cc(/C=C/C(=O)O)cc(OC)c1OC | 70%
COc1cc(CCC(=O)O)ccc1O | 35%
COc1cccc(C(=O)O)c1 | 5%
COc1ccccc1/C=C/C(=O)O | 0%
O=C(O)/C=C/c1ccc(O)cc1 | 40%
O=C(O)Cc1ccc(O)cc1 | 20%
COc1ccc(CCC(=O)O)cc1OC | 35%
O=C(O)c1ccc(O)cc1 | 25%
COc1ccc(C(=O)O)cc1OC | 10%

SMILES | inhibition
COc1cc(/C=C/C(=O)O)ccc1O | 65%
O=C(O)/C=C/c1ccccc1 | 40%
COc1ccc(/C=C/C(=O)O)cc1 | 30%
O=C(O)c1ccccc1 | 20%
COc1cc(CC(=O)O)cc(OC)c1OC | 25%
COc1ccc(/C=C/C(=O)O)c(OC)c1 | 40%
O=C(O)CCc1ccccc1 | 15%
COc1ccc(CC(=O)O)cc1 | 15%
COc1cc(/C=C/C(=O)O)cc(OC)c1O | 65%
COc1cc(/C=C/C(=O)O)cc(OC)c1 | 20%
COc1ccccc1C(=O)O | 10%
COc1cccc(C(=O)O)c1O | 25%
O=C(O)Cc1ccccc1 | 5%
N[C@@H](Cc1ccccc1)C(=O)O | 0%
O=C(O)CCc1ccc(O)cc1 | 25%
COc1ccc(C(=O)O)cc1 | 15%
COc1cc(C(=O)O)cc(OC)c1OC | 20%

From ChEMBL document CHEMBL4418259, “Flavan-3-ol containing foodstuffs” (2012)
